# Experimental data taken from patent publication US20240400986A1, “MEMBRANE BOUND COMPOSITIONS AND METHODS RELATING TO SAME” (FLAGSHIP PIONEERING INNOVATIONS VII, LLC, priority 2021, published 2024).
# Like-named read-outs stand apart in the source and are kept apart here.
# Tests used:
# [1] = system: neuronal cell line derived from human neuroblastoma; conditions: neuronal cells, 24 hours
# [2] = system: neuronal cell line derived from human neuroblastoma; conditions: human, 24 h
# Protocol: For the screening, a total of 99 compounds (TargetMol) were divided in 5 groups. Each group included an untreated condition, a vehicular DMSO control, and a known high-gigasome producing condition to comparatively study gigasome production rates. As a cell death control group, 500 nM Staurosporine was added to induce apoptosis. Cultures were incubated for 24 hours under gigasome inducing conditions at concentrations ranging between 10 nM and 10,000 nM. Before the end of the treatment, live neuronal cultures were imaged. The Zeiss ZEN Blue software was used to distribute imaging fields of view (positions) to create an unbiased imaging sample of a well. 5 images were taken using a Zeiss LSM 900 confocal microscope. […] The BioApps ZEN software package was used to perform cell nucleus segmentation and counting. After 24 hours, gigasomes were harvested from the cell culture media by gently removing from the top of each 96-well ⅔ of the total volume without disturbing the cell layer (containing the settled gigasomes) and by adding to each well the same amount of PBS. […] Cells remaining in the 96-well plates were assessed for viability using CellTiter-Glo (Promega).
# [3] = system: neuronal cell line derived from human neuroblastoma; experiment: Small molecule compound screen of gigasome production in neuronal monocultures; conditions: Homo sapiens, 24 h, read-out: Fold Change of Gigasomes Produced vs. DMSO
# neuronal cells [4] = experiment: Gigasome-mediated extraction of stress granule-associated protein HuR (fixed plates, confocal); format: cell-based, human; conditions: 5 μM sodium arsenite, 0.2 μM MG-132, alone or combined, 24 h
# Protocol: For this paradigm, cells were treated with a low sodium arsenite concentration of 5 μM either alone or in combination with the proteasome inhibitor MG-132 at 0.2 μM. A vehicular control amount of DMSO was added to the media to comparatively study cargo signals within cells and gigasomes. Treatments were carried out in reduced serum-containing media for 24 hours to mimic a chronic exposure to arsenite. The presence of the stress-granule-related cargo within cells and in gigasomes was characterized and quantified by confocal microscopy analysis of 4% paraformaldehyde. Non-specific labeling was blocked by incubation with 5% normal goat serum in PBS in the presence of 0.1% Triton X-100, for 2 h at room temperature, followed by immunolabeling with an antibody against the RNA-binding protein HuR (see Table 12) and incubation with Alexa Fluor® 568 secondary antibodies. Phalloidin Alexa Fluor® 488 was used to mark the proximal plasma membrane. Nuclei were counterstained with DAPI.
# Images were captured using a Zeiss LSM 900 confocal microscope and a 40× objective. For analysis, 10×16-bit images per well were processed to obtain a final total range of 75-200 cells. Composite images were separated in the different channels. The background was subtracted from the red cargo-related channel, as described in Example 13a. The nuclear signal in the blue channel was thresholded using the “Yen” autothreshold algorithm. To measure the nuclear-to-cytosolic translocation of the stress-granule-related protein cargo upon treatment, firstly, the cargo-related nuclear signal was subtracted from the respective red channel image by creating a nuclear selection from the thresholded blue channel image, which was added to ImageJ Manager. The nuclear selection was then transferred to the background-subtracted red channel and the nuclear cargo signal was removed from the image leaving only the cytosolic signal. The cleared red channel image was thresholded using the “default” autothreshold algorithm for downstream particle analysis. To measure the cytosolic cargo signal, a cellular mask was then generated by thresholding the Green/F-actin channel using the “Li” autothreshold method. A cytosolic selection was created, added to ImageJ Manager, and transferred to the background subtracted, nuclear-cleared red channel image. The cytosolic cargo signal (integrated density) was measured and normalized to the number of nuclei counted in each field. Particle analysis was performed as described in Example 13a, using the thresholded green channel to identify particles of interest by filtering by area and circularity and re-directing to the blue and red channel for absence of nuclear signal and eventual presence of disease-related cargo, respectively. The quantity or distribution of objects obtained from the particle analysis was obtained as described in Example 13a.
# neuronal cells [5] = experiment: Gigasome-mediated extraction of APP-CTFs upon γ-secretase and proteasome inhibition (fixed plates, confocal); format: cell-based, human; conditions: γ-secretase inhibitor 5 μM, MG-132 0.1 μM, alone or combined; 24 h; compared to DMSO
# Protocol: Cells were treated with the γ-secretase inhibitor L-685,458 at 5 μM, either alone or in combination with the proteasome inhibitor MG-132 at 0.1 μM. A vehicular control amount of DMSO was added to the media to comparatively study cargo signals within cells and gigasomes. Treatments were carried out in reduced serum-containing media (3% FBS) for 24 hours. Disease-related cargo presence within cells and in gigasomes was characterized and quantified by confocal microscopy analysis of 4% paraformaldehyde fixed cells, following (immuno)fluorescent labeling of cytosolic, nuclear and cargo-specific protein markers. In some experiments β-III tubulin and Alexa Fluor® 488 phalloidin were used to mark the cytosol and proximal plasma membrane, respectively. To detect APP-CTFs, an antibody against the C-terminus of APP (C-APP) was used (see Table 12). Non-specific labeling was blocked by incubation with 5% normal goat serum in PBS in the presence of 0.05% saponin, for 1 h at room temperature. Primary antibodies were incubated overnight at 4° C., followed by incubation with Alexa Fluor®-conjugated secondary antibodies for 1 hour at room temperature. Nuclei were counterstained with DAPI.
# A range of 5-8 images per well were taken from replicate experiments to capture a final total range of 150-200 cells. […] The cellular cargo fluorescence intensity in the red channel was quantified by subtracting the background signal from each image, using the ImageJ built-in “subtract background” function with a default rolling ball radius of 50 pixel. The cargo signal (integrated density) in the red channel was measured and normalized to the number of nuclei counted in each field. […]
# For particle analysis, the cytosolic and F-actin/membrane signals were merged into single RGB image, converted to grayscale and then thresholded to create a cellular mask of objects in the field of view, as calculated by the “Li” autothreshold algorithm. […] The quantity or distribution of objects obtained from the particle analysis was divided by the number of cells counted in each field to obtain a normalized quantity or distribution.
compound,measurement,setting,value
Cn1cncc1[C@@](N)(c1ccc(Cl)cc1)c1ccc2c(c1)c(-c1cccc(Cl)c1)cc(=O)n2C [Tipifarnib],Number of Gigasomes Produced,[1]; dose 10 nM,<35
same,Number of Gigasomes Produced,[1]; dose 100 nM,55-65
same,Number of Gigasomes Produced,[1]; dose 1000 nM,65-75
same,Viability,[2]; 10 nM,>75%
same,Viability,[2]; 100 nM,>75%
same,Viability,[2]; 1000 nM,50-75%
same,fold induction at 0.01 µM,[3],0.75 to 1
same,fold induction at 0.1 µM,[3],1.5 to 1.75
same,fold induction at 1 µM,[3],1.75 to 2
O=[As]O [sodium arsenite],HuR cytosolic signal,neuronal cells [4]; compared to DMSO (FIG. 7B),increased
same,gigasomes per 1000 cells,neuronal cells [4]; fixed plates (FIG. 7C),200 per 1000 cells
"CC(C)C[C@H](NC(=O)[C@H](Cc1ccccc1)C[C@@H](O)[C@H](Cc1ccccc1)NC(=O)OC(C)(C)C)C(=O)N[C@@H](Cc1ccccc1)C(N)=O [γ-secretase inhibitor, L-685,458]",intracellular APP-CTF levels (C-APP immunoreactivity),neuronal cells [5],increase
